Counter-ions that a name gives are not always drawn.
Key:
[1] = DVS (Dynamic Vapour Sorption) experiments, hygroscopicity; format: physicochemical
Description: As shown in Example 1 of the present invention, DVS (Dynamic Vapour Sorption) experiments were performed at 25° C. and at 40° C. […] In contrast hereto, as shown in Example 2, Nalmefene hydrochloride as monohydrate absorbed about 2.5% water when exposed to 95% RH and 40° C.
DVS experiments were performed at 25° C. and at 40° C. The dihydrate is retained at relative humidity of 10-95%. Adsorption to the surface at high relative humidity is less than 0.2%. Desorption of the crystal water occurs slowly under 10% RH.
DVS experiments were performed at 25° C. and at 40° C. The shape of the curves was the same, only the curve at 40° C. is shown (FIG. 5).
Most of the water of hydration (4%) was absorbed at 10% RH. […] The amounts here are given as % weigh increase relative to dry, thus the weight gain corresponding to monohydrate was 4.8% and a 1.5 hydrate corresponds to a gain of 7.2%.

[2] = Particle size by Laser Diffraction (Malvern Mastersizer S); format: physicochemical; conditions: Example 3 batch, mineral oil as dispergent
Description: In the present context, particle sizes are determined by Laser Diffraction using a Malvern Mastersizer S instrument as disclosed in details in the introductory part of the experimental section.
In the present context, particle sizes are determined by Laser Diffraction using a Malvern Mastersizer S instrument made up of a laser transmitter (LASER HELIUM-NEON-wavelength 632 nm), an optical system (300 F lens, range 0.5-900 μm), a measurement cell for suspension (beam length 2.4 mm) and a photodiode detector. The sample is analysed using mineral oil (CAS 8042-47) as dispergent.
The particle size of the so obtained Nalmefene hydrochloride dihydrate was determined by Laser Diffraction using a Malvern Mastersizer S instrument.

[3] = Brittain, Analytical Profiles of Drug Substances and Excipients (1996); cited from earlier work
[4] = Solubility in aqueous solutions; format: physicochemical
Excerpt: To recover any unused Nalmefene hydrochloride from the methods I or II, outlined above, a method for the recovery has been developed that comprises • (i) optionally, distillation of mother liquors obtained from method (I) or (II) • (ii) basification of the mother liquors obtained in step (i), or from the methods (I) or (II), • (iii) extracting the mixture with a suitable organic solvent, • (iv) adding hydrogen chloride, and • (v) isolating the formed solid

C=C1CC[C@@]2(O)[C@H]3Cc4ccc(O)c5c4[C@@]2(CCN3CC2CC2)[C@H]1O5 [Nalmefene hydrochloride dihydrate]
relative humidity at which the hydrate is retained ([1]; DVS at 25° C. and 40° C.): 10-95%
relative humidity under which desorption of the crystal water occurs slowly ([1]; DVS at 25° C. and 40° C.): under 10 % RH
adsorption to the surface at high relative humidity ([1]; DVS at 25° C. and 40° C., high relative humidity): less than 0.2%
water absorbed at 95% RH ([1]; DVS at 25° C. and at 40° C., 95% RH): no water was absorbed
rehydration after drying at 0% RH ([1]; DVS-curve, crystal lattice retained): complete rehydration
hygroscopicity (in words) ([1]; hydrochloride dihydrate): non-hygroscopic
particle size D10 [2]: 14 μm
particle size D50 [2]: 122 μm
particle size D90 [2]: 287 μm

C=C1CC[C@@]2(O)[C@H]3Cc4ccc(O)c5c4[C@@]2(CCN3CC2CC2)[C@H]1O5 [Nalmefene hydrochloride monohydrate]
adventitious moisture sorbed [3]: up to 1%
water absorbed when exposed to 95% RH and 40° C. ([1]; 95% RH, 40° C.): about 2.5%
weight increase relative to dry at 10% RH ([1]; DVS, 10% RH): 4%
weight increase relative to dry at 50% RH ([1]; DVS, 50% RH): 4.3%
weight increase relative to dry at 60% RH ([1]; DVS, 60% RH): 6.9%
weight increase relative to dry at 95% RH ([1]; DVS, 95% RH): 7.3%
RH above which the form changed into a new structure with higher water content ([1]; DVS, Example 2): above 50%
hygroscopicity (in words) ([1]; listed as Nalmefene hydrochloride as a monohydrate, hydrochloride monohydrate): hygroscopic

C=C1CC[C@@]2(O)[C@H]3Cc4ccc(O)c5c4[C@@]2(CCN3CC2CC2)[C@H]1O5 [Nalmefene hydrochloride, 17-(cyclopropylmethyl)-4,5-α-epoxy-6-methylenemorphinan-3,14-diol hydrochloride]
solubility in aqueous solutions such as water [4]: highly soluble

Source: US8754217B2, “Nalmefene hydrochloride dihydrate” (H. Lundbeck A/S, priority 2008, dated 2014)
